# Data reported in article PMC10600239, “Selective MCL-1 inhibitor ABBV-467 is efficacious in tumor models but is associated with cardiac troponin increases in patients” (Communications Medicine, 2023).
# Test system: AMO-1 xenografts
# Experiment: AMO-1 xenograft efficacy (tumor volume, body weight)
# Format: in vivo, mouse
# Conditions: mice, 25 mg/kg on a Q7D × 2 schedule
# Procedure: All animal studies were conducted in accordance with the guidelines approved by the Institutional Animal Care and Use Committees of AbbVie. The research protocol was approved by In Vivo Pharmacology at AbbVie prior to study initiation but was not publicly registered or disclosed. Female C.B-17 SCID-beige mice (AMO-1, OPM-2, NCI-H929, and OCI-AML2 xenografts) and female NSG mice (MV4-11-Red.Fluc systemic) were purchased from Charles River Laboratories (Wilmington, MA). Animals were housed in a light cycle-controlled room with HEPA filtration at 22 °C. Animals had nesting and climbing cage topper as the primary environmental enrichment. Animals were inoculated subcutaneously in the right flank with 5 × 10^6 (AMO-1, OPM-2, NCI-H929, and OCI-AML2) or intravenous (IV) with 5 × 10^6 (MV4-11-Red.Fluc). The inoculation volume (0.2 mL) comprised a 50:50 mixture of cells in growth media and Matrigel (BD Biosciences) for subcutaneous injections and 100% phosphate-buffered saline for IV administration. All cell lines used in this publication were authenticated using IDEXX for STR profiling as well as their IMPACT and human IMPACT panels for pathogen screening. Electronic calipers were used to measure the length and width of each tumor 2 to 3 times per week. Tumor volume was estimated by applying the following equation: volume = length × width^2/2. All groups remained blinded during measurements and dosing; only veterinary staff were aware of group identity. When tumors reached approximately 200 mm^3, mice were randomized by match and distributed into treatment and control groups. All xenograft trials were conducted using 5 to 10 mice per group, and all mice were ear tagged and monitored individually throughout the studies. […] Tumor burden in the systemic MV4-11-Red.Fluc experiment was measured using an IVIS® spectrum from PerkinElmer by taking the total photon flux of the entire dorsal side of an individual mouse. […] A background control mouse that was tumor naive but received D-Luciferin was placed in the upper left corner of each image. The total flux from this animal was subtracted from the total flux of each animal present in the image.
# For in vivo studies, maximal tumor growth inhibition (TGI) was calculated as the greatest treatment response using the following equation: Maximal TGI = (1 − mean tumor volume of the treated group/mean tumor volume of the vehicle control group) × 100. The tumor growth delay (TGD) percentage was determined as the percentage increase of the median time period for the treatment group to reach an arbitrary tumor volume of 1000 mm^3 relative to the vehicle control group. […] A power analysis was conducted using historical data to determine the number of animals required to yield significance of 0.05 at a 30% difference. […] Data from experiments in vivo were analyzed using the student’s t-test for TGI values and the Mann–Whitney U test for TGD using Excel and GraphPad Prism. Fisher’s exact test was used to probe significance of differences in response frequency.
compound,measurement,value
Cc1c(Cl)c2c(Cl)c(C)c1-c1c(-c3ccc(F)cc3)sc3ncnc(c13)O[C@@H](C(=O)O)Cc1cc(ccc1OCc1ccnc(-c3ccc(OC[C@H]4COCCO4)cc3)n1)OC[C@@H](CN1CCN(C)CC1)O2 [ABBV-467],tolerability,not well-tolerated
